What all share (assay type): in vivo
For test [1], the system named is Lamium amplexicaule. Put plainly: Herbicidal action against weeds (greenhouse trials), post-emergence. The following applies: 672 h, 2- to 3-leaf stage, scored visually approx. 4 weeks after application. How it is done:
(§1) The seeds or rhizome pieces of typical harmful plants were placed into sandy loam soil in round pots, size 13, covered with soil and grown in a greenhouse under good growth conditions. After the harmful plants had emerged, they were treated, as a rule at the 2- to 3-leaf stage, with various dosages of the compositions according to the invention at a water application rate of 100 to 400 I/ha (converted).
(§2) After the treatment (approx. 4 weeks after application), the herbidical activity of the active compounds or active compound mixtures was scored visually by comparing the treated plants with untreated controls. Damage and development of all above-ground parts of the plants was recorded. Scoring was done on a percentage scale (100% action=all plants dead; 50% action=50% of the plants and green plant parts dead; 0% action=no discernible action).
(§3) The results are listed in the tables below, where the activity measured for the independent use of the active compounds (A) and (B) is stated in brackets.

Test [2] concerns Veronica persica. Described as above. Conditions: 672 h, 2- to 3-leaf stage, scored visually approx. 4 weeks after application. How it is done: as §1, §2, §3
In test [3] the test system is Acacia farnesiana. Put plainly: Herbicidal action against woody shrub weeds (greenhouse trials). Conditions: Vachellia farnesiana, 672 h. How it is done:
as §1, §2, §3
(§4) The plants were cultivated to the 5- to 6-leaf stage. Herbicide application and scoring of the trial were carried out as in Example 1.

Test [4] concerns Mimosa pigra. The description is as above. The following applies: 672 h. How it is done: as §1, §2, §3, §4
The mark [5] stands for this setting: application rate 40 g of ai/ha, 5- to 6-leaf stage, scored visually approx. 4 weeks after application.

Consider `COc1cc(OC)nc(NC(=O)NS(=O)(=O)N(C)S(C)(=O)=O)n1` [Amidosulfuron, 1-(4,6-dimethoxypyrimidin-2-yl)-3-mesyl(methyl)sulfamoylurea], for which the values for the inhibition at 20 g/ha in test [1] (application rate 20 g of ai/ha) and in test [2] (application rate 20 g of ai/ha) were 18% and 20%, respectively. Further, the inhibition at 40 g/ha in test [3] (setting [5]) was determined as 43%; in test [4] (setting [5]), 20%.

As to `Nc1c(Cl)c(Cl)nc(C(=O)O)c1Cl` [Picloram, 4-amino-3,5,6-trichloropyridine-2-carboxylic acid], the values for the inhibition at 60 g/ha in test [1] (application rate 60 g of ai/ha) and in test [2] (application rate 60 g of ai/ha) were 75% and 62%, respectively.

Turning to `Nc1cc(Cl)nc(C(=O)O)c1Cl` [Aminopyralid, 4-amino-3,6-dichloropyridine-2-carboxylic acid], the figures for the inhibition at 60 g/ha in test [3] (read-out: Acacia farnesiana % activity) and in test [4] (read-out: Mimosa pigra % activity) were 55% and 73%, respectively.

For the origin of these results see patent US8883680B2, “Herbicide combinations with particular sulphonyl ureas” (Bayer Cropscience AG, priority 2006, dated 2014).
